Laboratory results: ChEMBL document CHEMBL6134779, “Design of Proteolytic-Resistant Antifungal Peptides by Utilizing Minimum d-Amino Acid Ratios” (J Med Chem, 2024)
Converted amounts (≈) assume the structure as drawn. The source made the active and inactive calls. No cut-off for these calls is given here.

Legend:
Candida albicans [1] = assay: Antifungal activity against Candida albicans CGMCC 2.2086 assessed as inhibition of fungal growth incubated for 2 hrs in presence of trypsin; type: functional, organism-based
Candida parapsilosis = assay: Antifungal activity against Candida parapsilosis CGMCC 2.3989 assessed as inhibition of fungal growth incubated for 48 hrs; type: functional; details: Lodderomyces parapsilosis
Candida albicans [2] = assay: Antifungal activity against Candida albicans SP3903 assessed as inhibition of fungal growth incubated for 48 hrs; type: functional
Candida albicans [3] = assay: Antifungal activity against Candida albicans 14936 assessed as inhibition of fungal growth incubated for 48 hrs; type: functional
Candida albicans [4] = assay: Antifungal activity against Candida albicans SP3876 assessed as inhibition of fungal growth incubated for 48 hrs; type: functional
Candida albicans [5] = assay: Antifungal activity against Candida albicans 17546 assessed as inhibition of fungal growth incubated for 48 hrs; type: functional
Candida albicans [6] = assay: Antifungal activity against Candida albicans CGMCC 2.2086 assessed as inhibition of fungal growth incubated for 2 hrs in presence of chymotrypsin; type: functional, organism-based
Candida albicans [7] = assay: Antifungal activity against Candida albicans SP3931 assessed as inhibition of fungal growth incubated for 48 hrs; type: functional
[8] = Proteolytic stability of the compound assessed as chymotrypsin (unknown origin)-mediated drug degradation measured after 8 hrs by 16.5% tricine-SDS-PAGE analysis; type: ADME; details: human
[9] = Proteolytic stability of the compound assessed as trypsin (unknown origin)-mediated drug degradation measured after 8 hrs by 16.5% tricine-SDS-PAGE analysis; type: ADME; details: human
Candida albicans [10] = assay: Antifungal activity against Candida albicans CGMCC 2.2086 assessed as inhibition of fungal growth incubated for 2 hrs in presence of protease K; type: functional, organism-based
Candida albicans [11] = assay: Antifungal activity against Candida albicans 56452 assessed as inhibition of fungal growth incubated for 48 hrs; type: functional
Candida albicans [12] = assay: Antifungal activity against Fluconazole-resistant Candida albicans 56214 assessed as inhibition of fungal growth incubated for 48 hrs; type: functional
Candida albicans [13] = assay: Antifungal activity against Candida albicans CGMCC 2.2086 assessed as inhibition of fungal growth incubated for 48 hrs; type: functional
[14] = Proteolytic stability of the compound assessed as protease K (unknown origin)-mediated drug degradation measured after 8 hrs by 16.5% tricine-SDS-PAGE analysis; type: ADME; details: human
Candida tropicalis = assay: Antifungal activity against Candida tropicalis CGMCC 2.1975 assessed as inhibition of fungal growth incubated for 48 hrs; type: functional
Candida albicans [15] = assay: Antifungal activity against Candida albicans SP3902 assessed as inhibition of fungal growth incubated for 48 hrs; type: functional
Candida albicans [16] = assay: Antifungal activity against Fluconazole-resistant Candida albicans 58288 assessed as inhibition of fungal growth incubated for 48 hrs; type: functional
Candida albicans [17] = assay: Antifungal activity against Candida albicans CGMCC 2.2086 infected in C57BL/6 mouse keratitis model assessed as reduction in mycelia in the eyes at 1 mg/ml administered as 10 uL eye drop every 5 mins for first 1 hr and every 30 mins for next 7 hrs by Schiff staining based assay; type: functional, organism-based; details: route ou, time 8.0 hrs
Candida albicans [18] = assay: Antifungal activity against Candida albicans CGMCC 2.2086 infected in C57BL/6 mouse keratitis model assessed as reduction in clinical scores at 1 mg/ml administered as 10 uL eye drop every 5 mins for first 1 hr and every 30 mins for next 7 hrs; type: functional, organism-based; details: route ou, time 8.0 hrs
Candida albicans [19] = assay: Antifungal activity against Candida albicans CGMCC 2.2086 infected in C57BL/6 mouse keratitis model assessed as reduction in fungal cell count at 1 mg/ml administered as 10 uL eye drop every 5 mins for first 1 hr and every 30 mins for next 7 hrs; type: functional, organism-based; details: route ou, time 8.0 hrs
Candida albicans [20] = assay: Antifungal activity against Candida albicans CGMCC 2.2086 assessed as inhibition of fungal growth incubated for 48 hrs in presence of NH4Cl; type: functional
[21] = Stability of the compound in NaCl assessed as change in secondary structure by CD spectra analysis; type: physicochemical
[22] = Hemolytic activity in human red blood cells assessed as hemolysis rate at 512 uM incubated for 1 hr relative to control; type: toxicity, cell-based, Erythrocyte; details: read-out: Activity
[23] = Stability of the compound in CaCl2 assessed as change in secondary structure by CD spectra analysis; type: physicochemical
[24] = Stability of the compound in ZnCl2 assessed as change in secondary structure by CD spectra analysis; type: physicochemical
[25] = Cytotoxicity against porcine IPEC-J2 cells assessed as reduction in cell viability at 128 uM incubated for 4 hrs by MTT assay; type: toxicity, cell-based, Sus scrofa; details: pig, ipec-j2, 4 h
Candida albicans [26] = assay: Antifungal activity against Candida albicans CGMCC 2.2086 assessed as inhibition of fungal growth incubated for 48 hrs in presence of ZnCl2; type: functional
Candida albicans [27] = assay: Antifungal activity against Candida albicans CGMCC 2.2086 assessed as inhibition of fungal growth incubated for 48 hrs in presence of NaCl; type: functional
Candida albicans [28] = assay: Antifungal activity against Candida albicans CGMCC 2.2086 assessed as inhibition of fungal growth incubated for 48 hrs in presence of CaCl2; type: functional
[29] = Hemolytic activity in human red blood cells assessed as hemolysis incubated for 1 hr; type: toxicity, cell-based, Erythrocyte
Candida albicans [30] = assay: Antifungal activity against Candida albicans CGMCC 2.2086 assessed as inhibition of fungal growth incubated for 48 hrs in presence of FeCl3; type: functional
[31] = Stability of the compound in FeCl3 assessed as change in secondary structure by CD spectra analysis; type: physicochemical
HEK293 = assay: Cytotoxicity against HEK293 cells assessed as reduction in cell viability at 128 uM incubated for 4 hrs by MTT assay; type: toxicity, cell-based; details: human, hek293, 4 h
Candida albicans [32] = assay: Antifungal activity against Candida albicans CGMCC 2.2086 assessed as inhibition of fungal growth incubated for 48 hrs in presence of MgCl2; type: functional
[33] = Stability of the compound in NH4Cl assessed as change in secondary structure by CD spectra analysis; type: physicochemical
[34] = Stability of the compound in KCl assessed as change in secondary structure by CD spectra analysis; type: physicochemical
[35] = Stability of the compound in MgCl2 assessed as change in secondary structure by CD spectra analysis; type: physicochemical
Candida albicans [36] = assay: Antifungal activity against Candida albicans CGMCC 2.2086 assessed as inhibition of fungal growth incubated for 48 hrs in presence of KCl; type: functional

Structure (SMILES)	MIC95 (Candida parapsilosis) [µM]	MIC95 (Candida albicans [2]) [µM]	MIC95 (Candida albicans [3]) [µM]	MIC95 (Candida albicans [4]) [µM]	MIC95 (Candida albicans [5]) [µM]	MIC95 (Candida albicans [7]) [µM]	MIC95 (Candida albicans [11]) [µM]	MIC95 (Candida albicans [12]) [µM]	MIC95 (Candida albicans [13]) [µM]	MIC95 (Candida tropicalis) [µM]	MIC95 (Candida albicans [15]) [µM]	MIC95 (Candida albicans [16]) [µM]	MIC95 (Candida albicans [20]) [µM]	Stability [21]	hemolysis at 1 h, 512 µM [22] [%]	Stability [23]	Stability [24]	Activity [25]	MIC95 (Candida albicans [26]) [µM]	MIC95 (Candida albicans [27]) [µM]	also measured
CC[C@H](C)[C@H](NC(=O)CN)C(=O)NCC(=O)N[C@@H](C)C(=O)N[C@H](C(=O)N[C@@H](CC(C)C)C(=O)N[C@@H](CCCCN)C(=O)N[C@H](C(=O)N[C@@H](CC(C)C)C(=O)N[C@H](C(=O)N[C@H](C(=O)NCC(=O)N[C@@H](CC(C)C)C(=O)N1CCC[C@H]1C(=O)N[C@@H](C)C(=O)N[C@@H](CC(C)C)C(=O)N[C@H](C(=O)N[C@@H](CO)C(=O)N[C@@H](Cc1c[nH]c2ccccc12)C(=O)N[C@H](C(=O)N[C@@H](CCCCN)C(=O)N[C@@H](CCCNC(=N)N)C(=O)N[C@@H](CCCCN)C(=O)N[C@@H](CCCNC(=N)N)C(=O)N[C@@H](CCC(N)=O)C(=O)N[C@@H](CCC(N)=O)C(N)=O)[C@@H](C)CC)[C@@H](C)CC)[C@@H](C)O)[C@@H](C)O)C(C)C)C(C)C [MELITTIN]	2 (≈ 5.69 µg/mL)	4 (≈ 11.4 µg/mL)	4 (≈ 11.4 µg/mL)	4 (≈ 11.4 µg/mL)	4 (≈ 11.4 µg/mL)	4 (≈ 11.4 µg/mL)	4 (≈ 11.4 µg/mL)	2 (≈ 5.69 µg/mL)	4 (≈ 11.4 µg/mL)	2 (≈ 5.69 µg/mL)	4 (≈ 11.4 µg/mL)	4 (≈ 11.4 µg/mL)	–	–	–	–	–	–	–	–	Activity (Candida albicans [1]): inactive; Activity (Candida albicans [6]): inactive; Stability [8]: Unstable; Stability [9]: Unstable; Activity (Candida albicans [10]): inactive; Stability [14]: Unstable
C[C@@H]1[C@H](O)[C@@H](C)/C=C/C=C/C=C/C=C/C=C/C=C/C=C/[C@H](O[C@@H]2O[C@H](C)[C@@H](O)[C@H](N)[C@@H]2O)C[C@@H]2O[C@](O)(C[C@@H](O)C[C@@H](O)[C@H](O)CC[C@@H](O)C[C@@H](O)CC(=O)O[C@H]1C)C[C@H](O)[C@H]2C(=O)O [AMPHOTERICIN B]	0.25 (≈ 0.231 µg/mL)	0.25 (≈ 0.231 µg/mL)	0.25 (≈ 0.231 µg/mL)	0.25 (≈ 0.231 µg/mL)	0.25 (≈ 0.231 µg/mL)	0.25 (≈ 0.231 µg/mL)	0.25 (≈ 0.231 µg/mL)	0.25 (≈ 0.231 µg/mL)	0.25 (≈ 0.231 µg/mL)	0.25 (≈ 0.231 µg/mL)	0.25 (≈ 0.231 µg/mL)	0.25 (≈ 0.231 µg/mL)	–	–	–	–	–	–	–	–	Activity (Candida albicans [17]): Active; Mycelia In The Eyes Was Either Absent Or Minimal; Activity (Candida albicans [18]): Active; Activity (Candida albicans [19]): Active
CC[C@H](C)[C@H](N)C(=O)N[C@H](C(=O)N[C@H](CCCNC(=N)N)C(=O)N[C@@H](CCCNC(=N)N)C(=O)N[C@@H](Cc1c[nH]cn1)C(=O)N[C@H](C(=O)N[C@H](C(=O)N[C@H](C(=O)N[C@H](C(=O)N[C@H](CCCNC(=N)N)C(=O)N[C@@H](CCCNC(=N)N)C(=O)N[C@@H](Cc1c[nH]cn1)C(=O)N[C@H](C(=O)N[C@H](C(=O)N[C@H](C(=O)N[C@H](C(=O)N[C@H](CCCNC(=N)N)C(=O)N[C@@H](CCCNC(=N)N)C(=O)N[C@@H](Cc1c[nH]cn1)C(=O)N[C@H](C(=O)N[C@H](C(=O)N[C@H](C(=O)N[C@H](C(=O)N[C@H](CCCNC(=N)N)C(=O)N[C@@H](CCCNC(=N)N)C(=O)N[C@@H](Cc1c[nH]cn1)C(=O)N[C@H](C(=O)N[C@H](C(N)=O)[C@@H](C)CC)[C@@H](C)CC)[C@@H](C)CC)[C@@H](C)CC)[C@@H](C)CC)[C@@H](C)CC)[C@@H](C)CC)[C@@H](C)CC)[C@@H](C)CC)[C@@H](C)CC)[C@@H](C)CC)[C@@H](C)CC)[C@@H](C)CC)[C@@H](C)CC)[C@@H](C)CC	4 (≈ 14.5 µg/mL)	4 (≈ 14.5 µg/mL)	4 (≈ 14.5 µg/mL)	4 (≈ 14.5 µg/mL)	8 (≈ 29 µg/mL)	8 (≈ 29 µg/mL)	8 (≈ 29 µg/mL)	4 (≈ 14.5 µg/mL)	4 (≈ 14.5 µg/mL)	4 (≈ 14.5 µg/mL)	4 (≈ 14.5 µg/mL)	8 (≈ 29 µg/mL)	8	Unstable	38.9	Stable	Stable	Toxic	16	32	MIC95 (Candida albicans [28]): 16 µM; HC50 at 1 h [29]: > 512 µM; MIC95 (Candida albicans [30]): 16 µM; Stability [31]: Stable; Activity (HEK293): Toxic; MIC95 (Candida albicans [32]): 8 µM; Stability [33]: Stable; Stability [34]: Stable; Stability [35]: Stable; MIC95 (Candida albicans [36]): 8 µM
CC(C)[C@H](N)C(=O)N[C@H](C(=O)N[C@H](CCCNC(=N)N)C(=O)N[C@@H](CCCNC(=N)N)C(=O)N[C@@H](Cc1c[nH]cn1)C(=O)N[C@H](C(=O)N[C@H](C(=O)N[C@H](C(=O)N[C@H](C(=O)N[C@H](CCCNC(=N)N)C(=O)N[C@@H](CCCNC(=N)N)C(=O)N[C@@H](Cc1c[nH]cn1)C(=O)N[C@H](C(=O)N[C@H](C(=O)N[C@H](C(=O)N[C@H](C(=O)N[C@H](CCCNC(=N)N)C(=O)N[C@@H](CCCNC(=N)N)C(=O)N[C@@H](Cc1c[nH]cn1)C(=O)N[C@H](C(=O)N[C@H](C(=O)N[C@H](C(=O)N[C@H](C(=O)N[C@H](CCCNC(=N)N)C(=O)N[C@@H](CCCNC(=N)N)C(=O)N[C@@H](Cc1c[nH]cn1)C(=O)N[C@H](C(=O)N[C@H](C(N)=O)C(C)C)C(C)C)C(C)C)C(C)C)C(C)C)C(C)C)C(C)C)C(C)C)C(C)C)C(C)C)C(C)C)C(C)C)C(C)C)C(C)C)C(C)C	4 (≈ 13.6 µg/mL)	4 (≈ 13.6 µg/mL)	8 (≈ 27.2 µg/mL)	8 (≈ 27.2 µg/mL)	8 (≈ 27.2 µg/mL)	8 (≈ 27.2 µg/mL)	8 (≈ 27.2 µg/mL)	4 (≈ 13.6 µg/mL)	8 (≈ 27.2 µg/mL)	4 (≈ 13.6 µg/mL)	8 (≈ 27.2 µg/mL)	8 (≈ 27.2 µg/mL)	8	Unstable	21.7	Stable	Stable	Toxic	32	64	MIC95 (Candida albicans [28]): 32 µM; HC50 at 1 h [29]: > 512 µM; MIC95 (Candida albicans [30]): 16 µM; Stability [31]: Stable; Activity (HEK293): Toxic; MIC95 (Candida albicans [32]): 16 µM; Stability [33]: Stable; Stability [34]: Stable; Stability [35]: Stable; MIC95 (Candida albicans [36]): 16 µM
